The nature of series [1]: Storage stability / precipitation of m-AMSA lactate aqueous solutions.
For series [2] the following is noted: prior art; cited from earlier work.
In series [3] the test system is animal tumor systems. To be noted: Cain et al., Europ. J. Cancer 10:539-549 (1974); cited from earlier work.
Series [4] in a line: Aqueous solubility of m-AMSA base and salts.

By solubility is commonly meant the concentration that dissolves in the medium under given conditions.

Structures can show the parent of a compound that is named as a salt.

For `COc1cc(NS(C)(=O)=O)ccc1Nc1c2ccccc2nc2ccccc12` [m-AMSA lactate salts], the “precipitation under extended storage” value in series [1] (concentrations as high as 5 mg/ml, extended storage at 24° C.) is “can result in precipitates”.
In the case of `COc1cc(NS(C)(=O)=O)ccc1Nc1c2ccccc2nc2ccccc12` [m-AMSA, 4'9-(acridinylamino) methanesulfon-m-anisidide], the solubility in water result in series [2] was “very limited solubility in water”. Further, the antitumor activity result in series [3] was “significant antitumor activity”.
Turning to `COc1cc(NS(C)(=O)=O)ccc1Nc1c2ccccc2nc2ccccc12` [monohydrochloride], in series [2], the solubility in water entry is recorded as “insufficiently water-soluble”.
With `COc1cc(NS(C)(=O)=O)ccc1Nc1c2ccccc2nc2ccccc12` [m-AMSA L(+)-lactate monohydrate salt], the reconstitution rates result in series [4] is “excellent”. In addition, the solubility in series [4] (water) was ~2500 µg/mL. The stability result in series [1] (for use as an intravenous drug) is reported as “the stability necessary for use as an intravenous drug”.
With `COc1cc(NS(C)(=O)=O)ccc1Nc1c2ccccc2nc2ccccc12` [monomethanesulfonate], in series [2], the solubility in water result is listed as “insufficiently water-soluble”.

The values are drawn from US4663458A, “Water soluble salt composition of m-AMSA” (Bristol-Myers Company, priority 1985, dated 1987).
